Results: patent US10618903B2, “Heteroaryl substituted aminopyridine compounds” (BRISTOL-MYERS SQUIBB COMPANY, priority 2015, dated 2020)

Key:
[1] = tested on: IL-6 levels in human whole blood stimulated with a TLR2 agonist; test: IRAK4 Whole Blood Assay (lipoteichoic acid/TLR2-stimulated IL-6); format: cell-based; details: Homo sapiens, lipoteichoic acid 10 μg/mL, IL-6 readout
Experimental: Human whole blood containing the anti-coagulant ACD-A was plated in 384-well plate (25 μL/well) and incubated with compounds for 60 minutes at 37° C. in a 5% CO2 incubator. The blood was stimulated with a TLR2 agonist, 10 μg/mL final concentration of lipoteichoic acid (Invivogen, San Diego, Calif.) in 25 μL RPMI (Gibco) for 5 hours in a 5% CO2 incubator. At the end of the incubation, plates were centrifuged at 2300 rpm for 5 minutes. Supernatants were harvested and analyzed for IL-6 levels by Flow Cytometry beads assay (BD Biosciences, San Jose, Calif.).

IRAK4 = IRAK4 (Homo sapiens (Human), UniProt Q9NWZ3); test: IRAK4 Inhibition Assay; format: biochemical; details: ATP 500 μM; IRAK4 0.6 nM
How it was run: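 Enzyme 0.6 nM, ATP 500 μM, FL-peptide 1.5 μM, DMSO 1.6%; HEPES pH 7.2/MgCl2/Brij 35/DTT buffer. RT, 60 min, EDTA stop. Mobility-shift product/substrate ratio; % inhib vs no-enzyme and vehicle controls.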

Sequence of IRAK4 (Q9NWZ3 whole entry): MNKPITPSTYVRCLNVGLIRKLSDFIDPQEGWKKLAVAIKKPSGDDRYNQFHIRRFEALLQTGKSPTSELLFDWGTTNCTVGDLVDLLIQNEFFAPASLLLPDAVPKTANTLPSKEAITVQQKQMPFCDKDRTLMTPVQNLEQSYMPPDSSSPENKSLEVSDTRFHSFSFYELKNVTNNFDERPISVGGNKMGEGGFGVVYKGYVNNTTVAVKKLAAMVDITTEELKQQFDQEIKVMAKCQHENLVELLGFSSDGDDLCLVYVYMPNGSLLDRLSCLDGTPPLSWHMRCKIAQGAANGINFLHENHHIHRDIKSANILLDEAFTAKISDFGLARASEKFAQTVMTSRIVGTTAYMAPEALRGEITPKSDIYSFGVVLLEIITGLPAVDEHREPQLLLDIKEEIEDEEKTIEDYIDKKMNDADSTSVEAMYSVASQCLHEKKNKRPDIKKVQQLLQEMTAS

| EC50 [1] | IC50 (IRAK4) | Structure (SMILES) |
| --- | --- | --- |
| 460 nM | 5 nM | CNC(=O)[C@H]1CC[C@H](NC(=O)c2cnc(-c3cnn4cc(Cl)cnc34)cc2NC2CC2)CC1 [Example 25, 6-(6-chloropyrazolo[1,5-a]pyrimidin-3-yl)-4-(cyclopropylamino)-N-((1r,4r)-4-(methylcarbamoyl)cyclohexyl)nicotinamide] |
| 1050 nM | 7 nM | CNC(=O)[C@H]1CC[C@H](NC(=O)c2cnc(-c3cnn4cc(Cl)cnc34)cc2NC(C)C)CC1 [Example 27, 6-(6-chloropyrazolo[1,5-a]pyrimidin-3-yl)-4-(isopropylamino)-N-((1r,4r)-4-(methylcarbamoyl)cyclohexyl) nicotinamide] |
| 1920 nM | 5 nM | CC(C)Nc1cc(-c2cnn3cc(Cl)cnc23)ncc1C(=O)N[C@H]1CC[C@H](C(=O)NC2CC2)CC1 [Example 28, 6-(6-chloropyrazolo[1,5-a]pyrimidin-3-yl)-N-((1r,4r)-4-(cyclopropylcarbamoyl)cyclohexyl)-4-(isopropylamino)nicotinamide] |
| 2440 nM | 2 nM | CC(C)(O)[C@H](F)CNC(=O)c1cnc(-c2cnn3cc(Cl)cnc23)cc1Nc1cccc(C#N)c1F [Example 35, (R)-6-(6-chloropyrazolo[1,5-a]pyrimidin-3-yl)-4-((3-cyano-2-fluorophenyl)amino)-N-(2-fluoro-3-hydroxy-3-methylbutyl)nicotinamide] |
| 350 nM | 7 nM | O=C(N[C@H]1CC[C@H](C(=O)NC2CC2)CC1)c1cnc(-c2cnn3cc(Cl)cnc23)cc1NC1COC1 [Example 41, 6-(6-chloropyrazolo[1,5-a]pyrimidin-3-yl)-N-((1r,4r)-4-(cyclopropylcarbamoyl)cyclohexyl)-4-(oxetan-3-ylamino)nicotinamide] |
| 1250 nM | 10 nM | CC(C)(O)[C@H](F)CNC(=O)c1cnc(-c2cnn3cc(Cl)cnc23)cc1NCC1(O)CCC1 [Example 51, (R)-6-(6-chloropyrazolo[1,5-a]pyrimidin-3-yl)-N-(2-fluoro-3-hydroxy-3-methylbutyl)-4-(((1-hydroxycyclobutyl)methyl)amino)nicotinamide] |
| 2340 nM | 3 nM | [2H]C([2H])([2H])OC(C)(C)[C@H](F)CNC(=O)c1cnc(-c2cnn3cc(Cl)cnc23)cc1NC(C)C [Example 57, (R)-6-(6-chloropyrazolo[1,5-a]pyrimidin-3-yl)-N-(2-fluoro-3-trideuteromethoxy-3-methylbutyl)-4-(isopropylamino)nicotinamide] |
| 1460 nM | 2 nM | CC(C)(O)[C@H](F)CNC(=O)c1cnc(-c2cnn3cc(Cl)cnc23)cc1NC12CC(C1)C2 [Example 75, (R)-4-(bicyclo[1.1.1]pentan-1-ylamino)-6-(6-chloropyrazolo[1,5-a]pyrimidin-3-yl)-N-(2-fluoro-3-hydroxy-3-methylbutyl)nicotinamide] |
| 840 nM | 6 nM | CC1(Nc2cc(-c3cnn4cc(Cl)cnc34)ncc2C(=O)NC[C@@H](F)C(C)(C)O)CC1 [Example 80, (R)-6-(6-chloropyrazolo[1,5-a]pyrimidin-3-yl)-N-(2-fluoro-3-hydroxy-3-methylbutyl)-4-((1-methylcyclopropyl)amino)nicotinamide] |
| 860 nM | 6 nM | C[C@H](CO)Nc1cc(-c2cnn3cc(C#N)cnc23)ncc1C(=O)NC[C@@H](F)C(C)(C)O [Example 98, 6-(6-cyanopyrazolo[1,5-a]pyrimidin-3-yl)-N—((R)-2-fluoro-3-hydroxy-3-methylbutyl)-4-(((R)-1-hydroxypropan-2-yl)amino)nicotinamide] |
| 600 nM | 4 nM | CC(C)(O)[C@H](F)CNC(=O)c1cnc(-c2cnn3cc(C#N)cnc23)cc1NC1COC1 [Example 99, (R)-6-(6-cyanopyrazolo[1,5-a]pyrimidin-3-yl)-N-(2-fluoro-3-hydroxy-3-methylbutyl)-4-(oxetan-3-ylamino) nicotinamide] |
| 1640 nM | 7 nM | CC(C)(O)[C@H](F)CNC(=O)c1cnc(-c2cnn3cc(C#N)cnc23)cc1N[C@@H](CO)Cc1ccccc1 [Example 101, 6-(6-cyanopyrazolo[1,5-a]pyrimidin-3-yl)-N—((R)-2-fluoro-3-hydroxy-3-methylbutyl)-4-(((R)-1-hydroxy-3-phenylpropan-2-yl)amino)nicotinamide] |
| 440 nM | 5 nM | CC(C)(O)[C@H](F)CNC(=O)c1cnc(-c2cnn3cc(C#N)cnc23)cc1N[C@@H]1CCN(c2ncc(F)cn2)C1 [Example 109, 6-(6-cyanopyrazolo[1,5-a]pyrimidin-3-yl)-N—((R)-2-fluoro-3-hydroxy-3-methylbutyl)-4-(((R)-1-(5-fluoropyrimidin-2-yl)pyrrolidin-3-yl)amino)nicotinamide] |
| 900 nM | 3 nM | CC(C)(O)[C@H](F)CNC(=O)c1cnc(-c2cnn3cc(C#N)cnc23)cc1Nc1cccc(C(N)=O)c1 [Example 111, (R)-4-((3-carbamoylphenyl)amino)-6-(6-cyanopyrazolo[1,5-a]pyrimidin-3-yl)-N-(2-fluoro-3-hydroxy-3-methylbutyl)nicotinamide] |
| 480 nM | 3 nM | CC(C)(CO)Nc1cc(-c2cnn3cc(C#N)cnc23)ncc1C(=O)NC[C@@H](F)C(C)(C)O [Example 114, (R)-6-(6-cyanopyrazolo[1,5-a]pyrimidin-3-yl)-N-(2-fluoro-3-hydroxy-3-methylbutyl)-4-((1-hydroxy-2-methylpropan-2-yl)amino)nicotinamide] |
| 710 nM | 9 nM | CC(C)(O)[C@H](F)CNC(=O)c1cnc(-c2cnn3cc(C#N)cnc23)cc1N[C@@H]1CCN(c2ncccn2)C1 [Example 118, 6-(6-cyanopyrazolo[1,5-a]pyrimidin-3-yl)-N—((R)-2-fluoro-3-hydroxy-3-methylbutyl)-4-(((R)-1-(pyrimidin-2-yl)pyrrolidin-3-yl)amino)nicotinamide] |
| 800 nM | 9 nM | CC(C)(O)[C@H]1CC[C@H](NC(=O)c2cnc(-c3cnn4cc(C#N)cnc34)cc2NC2COC2)CC1 [Example 120, 6-(6-cyanopyrazolo[1,5-a]pyrimidin-3-yl)-N-((1r,4r)-4-(2-hydroxypropan-2-yl)cyclohexyl)-4-(oxetan-3-ylamino)nicotinamide] |
| 2340 nM | 14 nM | CC(C)Nc1cc(-c2ccn(-c3ccncc3)n2)ncc1C(=O)NC[C@@H](F)C(C)(C)O [Example 156, (R)—N-(2-fluoro-3-hydroxy-3-methylbutyl)-4-(isopropylamino)-6-(1-(pyridin-4-yl)-1H-pyrazol-3-yl)nicotinamide] |
| 930 nM | 3 nM | CC(C)Nc1cc(-c2cnn3cc(Cl)cnc23)ncc1C(=O)NC[C@@H](F)C(C)(C)OC(F)F [Example 157, (R)-6-(6-chloropyrazolo[1,5-a]pyrimidin-3-yl)-N-(3-(difluoromethoxy)-2-fluoro-3-methylbutyl)-4-(isopropylamino)nicotinamide] |
| 810 nM | 6 nM | CC(F)CCNc1cc(-c2cnn3cc(Cl)cnc23)ncc1C(=O)NC[C@@H](F)C(C)(C)O (stereo partly drawn) [Example 160, 6-(6-chloropyrazolo[1,5-a]pyrimidin-3-yl)-N—((R)-2-fluoro-3-hydroxy-3-methylbutyl)-4-((3-fluorobutyl)amino)nicotinamide] |
